The numbers were not newly measured in patent US20090285811A1, “ANTI-INFLAMMATORY AND IMMUNOSUPPRESSIVE GLUCOCORTICOID STEROIDS” (Auspex Pharmaceuticals, Inc., priority 2008, published 2009), which cites them from elsewhere.

One data set has as its target T1, glucocorticoid receptor (Homo sapiens, UniProt P04150).
T1 sequence (P04150 1-777): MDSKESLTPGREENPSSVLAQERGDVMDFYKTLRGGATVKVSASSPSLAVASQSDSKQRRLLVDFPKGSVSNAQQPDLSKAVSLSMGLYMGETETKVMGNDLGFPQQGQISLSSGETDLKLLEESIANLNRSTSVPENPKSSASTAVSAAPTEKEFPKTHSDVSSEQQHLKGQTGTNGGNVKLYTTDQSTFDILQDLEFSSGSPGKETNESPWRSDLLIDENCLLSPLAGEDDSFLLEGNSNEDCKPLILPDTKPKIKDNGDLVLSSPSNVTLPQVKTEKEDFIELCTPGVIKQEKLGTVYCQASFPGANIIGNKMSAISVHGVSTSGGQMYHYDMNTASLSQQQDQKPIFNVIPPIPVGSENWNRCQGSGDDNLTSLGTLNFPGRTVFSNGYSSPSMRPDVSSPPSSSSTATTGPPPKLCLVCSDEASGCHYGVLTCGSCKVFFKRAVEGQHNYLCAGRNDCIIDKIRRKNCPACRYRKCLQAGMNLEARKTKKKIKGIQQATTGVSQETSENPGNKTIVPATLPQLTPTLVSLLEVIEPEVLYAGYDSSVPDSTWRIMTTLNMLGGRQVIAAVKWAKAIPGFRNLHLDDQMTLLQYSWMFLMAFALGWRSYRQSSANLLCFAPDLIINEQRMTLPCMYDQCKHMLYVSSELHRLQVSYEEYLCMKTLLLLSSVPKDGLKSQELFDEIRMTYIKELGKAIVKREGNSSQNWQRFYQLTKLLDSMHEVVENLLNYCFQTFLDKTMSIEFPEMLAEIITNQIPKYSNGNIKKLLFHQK
The conditions noted are these: primary human CYP3A metabolites of budesonide.

Each structure is given as a SMILES string. Read-outs that look alike come from different tables or passages of the source.

In the case of `C[C@]12C=CC(=O)C=C1CC[C@@H]1[C@@H]2[C@@H](O)C[C@@]2(C)[C@H]1C[C@@H](O)[C@]2(O)C(=O)CO` [16α-hydroxyprednisolone], the “potency compared with budesonide” value on glucocorticoid receptor is on record as “significantly less potent”.
With `CCCC1O[C@@H]2C[C@H]3[C@@H]4C[C@@H](O)C5=CC(=O)C=C[C@]5(C)[C@H]4[C@@H](O)C[C@]3(C)[C@]2(C(=O)CO)O1` (stereo partly drawn) [6β-hydroxybudesonide], the “potency compared with budesonide” value at glucocorticoid receptor is on record as “significantly less potent”.
`CCCC1O[C@@H]2C[C@H]3[C@@H]4CCC5=CC(=O)C=C[C@]5(C)[C@H]4[C@@H](O)C[C@]3(C)[C@]2(C(=O)CO)O1` (stereo partly drawn) [Budesonide, 16,17-(butylidenebis(oxy))-11,21-dihydroxy-, (11-β,16-α)-pregna-1,4-diene-3,20-dione]: the systemic availability entry (after oral administration) is given as “approximately 12%” and the systemic availability result (intranasal administration) is reported as “about 20%”. Moreover, under “in vivo”, the elimination half-life entry is on record as “approximately 2 hours”. In addition, the clearance entry is “about 20 mL/min/Kg” (non-oral routes of administration) and ~40 mL/min/kg (oral administration).
